The nature of series [1]: (§1) Half life in Wistar Han rat at 0.5 mg/kg, iv LC-MS/MS method. It is filed as ADME, organism-based. Conditions: Wistar Han, in vivo.
Series [2] in a line: Lipophilicity, logD of the compound at pH 7 by HPLC method. It is filed as physicochemical. The settings on record: buffer.
Series [3] has as its target T1, Glucose-dependent insulinotropic receptor (Mus musculus, UniProt Q7TQP3).
T1 sequence (Q7TQP3 whole entry): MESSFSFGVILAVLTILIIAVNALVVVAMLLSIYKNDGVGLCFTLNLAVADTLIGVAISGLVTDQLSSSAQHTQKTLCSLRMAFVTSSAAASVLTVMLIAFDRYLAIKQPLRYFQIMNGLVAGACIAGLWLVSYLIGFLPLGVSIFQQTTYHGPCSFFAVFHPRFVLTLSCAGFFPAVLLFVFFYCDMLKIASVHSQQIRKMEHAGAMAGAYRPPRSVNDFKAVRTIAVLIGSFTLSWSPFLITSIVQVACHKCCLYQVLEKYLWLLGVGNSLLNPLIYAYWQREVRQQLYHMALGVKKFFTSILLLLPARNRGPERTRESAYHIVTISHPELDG
The series is described as follows: Agonist activity at mouse GPR119 by cAMP assay. In kind it is functional.

The target of series [4] is T2, Glucose-dependent insulinotropic receptor (Mus musculus) (UniProt Q7TQP3).
T2 sequence (whole entry): T1 sequence (Q7TQP3 whole entry)
Put plainly: Agonist activity at mouse GPR119 by cAMP assay relative to control. In kind it is functional. Set-up: concentration or dose not given beside the values.

Series [5] can be described thus: Kinetic solubility in FaSSIF at pH 6.5. It is filed as physicochemical. The settings on record: for solubility kinetic: FaSSIF, read-out: Kinetic_solubility.
Series [6] deals with T3, Glucose-dependent insulinotropic receptor (Homo sapiens, UniProt Q8TDV5).
T3 sequence (Q8TDV5 whole entry): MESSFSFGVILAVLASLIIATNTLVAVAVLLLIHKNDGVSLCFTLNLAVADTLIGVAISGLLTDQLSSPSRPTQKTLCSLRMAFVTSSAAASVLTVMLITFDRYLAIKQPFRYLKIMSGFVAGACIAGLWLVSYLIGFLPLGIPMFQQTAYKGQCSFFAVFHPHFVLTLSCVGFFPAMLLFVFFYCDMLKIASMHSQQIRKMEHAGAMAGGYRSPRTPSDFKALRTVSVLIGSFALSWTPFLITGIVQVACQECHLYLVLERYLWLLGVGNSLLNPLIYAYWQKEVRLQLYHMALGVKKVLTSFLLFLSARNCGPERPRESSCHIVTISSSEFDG
The series is described as follows: Agonist activity at human GPR119 expressed in CHO cells by cAMP assay. It is filed as functional, cell-based.

Series [7] deals with T4, Glucose-dependent insulinotropic receptor (Homo sapiens) (UniProt Q8TDV5).
T4 sequence (whole entry): T3 sequence (Q8TDV5 whole entry)
The series is described as follows: Agonist activity at human GPR119 by cAMP assay relative to control. Set-up: concentration or dose not given beside the values. In kind it is functional.

The test system of series [8] is Rattus norvegicus. The description is as §1. The settings on record: in vivo. In kind it is ADME, organism-based.
Series [9] deals with Rattus norvegicus. Put plainly: Unbound volume of distribution in Wistar Han rat at 0.5 mg/kg, iv LC-MS/MS method. In kind it is ADME, organism-based. Conditions: in vivo.
A short description of series [10]: Intrinsic clearance in rat liver microsomes. In kind it is ADME. The settings on record: read-out: CLH.
A short description of series [11]: Fraction unbound in rat plasma. In kind it is ADME, cell-free.
For series [12], the system named is Rattus norvegicus. The series is described as follows: Volume of distribution in Wistar Han rat at 0.5 mg/kg, iv LC-MS/MS method. It is filed as ADME, organism-based. Conditions: in vivo.

Values after ≈ are worked out from the molar mass of the structure shown.

`CS(=O)(=O)c1ccc(COC[C@@H]2C[C@@H]2C2CCN(c3ncc(F)cn3)CC2)cc1F` had a half-life in [1] of 1.5 h. The compound also yielded a logD in series [2] of 4.2. Besides, the EC50 in series [3] worked out at 4.5 nM; in [6], 2.4 nM. Besides, the Activity turned out to be 131% in series [4] and 85% in series [7]. Moreover, in series [5], the solubility kinetic turned out to be 92 µM (≈ 40.3 µg/mL).

Turning to `CCS(=O)(=O)c1ccc(OCC[C@@H]2C[C@@H]2C2CCN(c3nc(C(C)C)no3)CC2)c(F)c1`, the t1/2 with Rattus norvegicus [8] is 6.5 h. The same compound registered a Vdu with Rattus norvegicus [9] of 242 L/kg. For the same compound, in series [10], the CLint scaled was 675 mL/min/kg. The compound also displayed a logD in series [2] of 4.2. This compound had a fraction unbound in series [11] of 0.02. Moreover, in the series with Rattus norvegicus [12], the Vd was found to be 4.8 L/kg. Besides, the solubility kinetic in series [5] came out at 61 µM (≈ 28.4 µg/mL). This compound returned an EC50 in [6] of 1.7 nM. The same compound had an Activity in series [7] of 69%.

For the compound `COC(C)c1cnc(N2CCC([C@H]3C[C@H]3COCc3ccc(S(C)(=O)=O)cc3F)CC2)nc1` (stereo in doubt; 29) [listing 1 of 2 here], the half-life in series [1] is 1.4 h. For the same compound, the concentration for a half-maximal effect (EC50) in series [3] came out at 8.9 nM; in [6] it was 3.1 nM. This compound returned a Kinetic_solubility in series [5] (simulated gi fluid) of 143 µM.

In the case of `COc1cnc(N2CCC([C@H]3C[C@H]3COCc3ccc(S(C)(=O)=O)cc3F)CC2)nc1`, the half-life in [1] was 0.6 h. The logD in [2] turned out to be 4. For the same compound, the half-maximal effective concentration (EC50) was 1.4 nM in [3] and 4.5 nM in series [6]. Further, the Activity in series [4] worked out at 85%; in series [7], 79%. In addition, the solubility kinetic in series [5] amounted to 151 µM (≈ 67.9 µg/mL).

For the compound `CCOc1cnc(N2CCC([C@H]3C[C@H]3COCc3ccc(S(C)(=O)=O)c(F)c3)CC2)nc1`, in [1], the half-life is 0.8 h. In [2], this compound had a log distribution coefficient (logD) of 4.2. Besides, the EC50 worked out at 2.3 nM in [3] and 1.7 nM in series [6]. The Activity turned out to be 96% in [4] and 75% in series [7]. Moreover, in series [5], the solubility kinetic was found to be 101 µM (≈ 46.8 µg/mL).

Compound `CCc1cnc(N2CCC([C@H]3C[C@H]3COCc3ccc(S(C)(=O)=O)c(F)c3)CC2)nc1` gave a half-life in [1] of 1 h. The logD in [2] stood at 4.3. Besides, the EC50 amounted to 5.5 nM in series [3] and 2.5 nM in [6]. Besides, the Activity amounted to 115% in series [4] and 98% in series [7]. In addition, the solubility kinetic in series [5] turned out to be 140 µM (≈ 62.7 µg/mL).

In turn, `COCc1cnc(N2CCC([C@H]3C[C@H]3COCc3ccc(CC(=O)N4CCOCC4)cc3F)CC2)nc1` had a half-life in series [1] of 0.4 h. The compound further showed a logD in series [2] of 3.4. Moreover, the EC50 in series [3] turned out to be 3.7 nM; in [6] it was 3.2 nM. The Activity stood at 99% in series [4] and 104% in [7]. For the same compound, the solubility kinetic in series [5] stood at 172 µM (≈ 88.2 µg/mL).

`COC(C)c1cnc(N2CCC([C@H]3C[C@H]3COCc3ccc(S(C)(=O)=O)cc3F)CC2)nc1` (stereo in doubt; 30) [listing 1 of 2 here]: the Activity in series [4] was 70%; in series [7], 95%.

With `COC(C)c1cnc(N2CCC([C@H]3C[C@H]3COCc3ccc(S(C)(=O)=O)cc3F)CC2)nc1` (stereo in doubt; 29) [listing 2 of 2 here], the Activity in series [4] is 109%; in series [7] it was 87%.

With `CCS(=O)(=O)c1ccc(COC[C@@H]2C[C@@H]2C2CCN(c3ncc(COC)cn3)CC2)c(F)c1`, the half-life in [1] was 2.1 h. For the same compound, the log distribution coefficient (logD) in series [2] amounted to 3.8. For the same compound, the EC50 in series [3] amounted to 12.5 nM; in [6], 7.1 nM. Also, the Activity stood at 87% in [4] and 58% in series [7]. The solubility kinetic in [5] amounted to 129 µM (≈ 61.6 µg/mL).

The compound `CC1(OC(=O)N2CCC([C@H]3C[C@H]3COCc3ccc(-n4cnnn4)cc3F)CC2)CC1` showed a half-life in [1] of 1 h. This compound had a logD in series [2] of 3.8. Besides, the values for the EC50 in series [3] and in [6] were 15 nM and 4.8 nM, respectively. In addition, the results for the Activity in series [4] and in series [7] were 108% and 121%, respectively. Also, the solubility kinetic in series [5] came to 127 µM (≈ 54.5 µg/mL).

As to `COCc1cnc(N2CCC([C@H]3C[C@H]3COCc3ccc(S(C)(=O)=O)c(F)c3)CC2)nc1`, the half-life in series [1] is 1.2 h. In series [2], this compound yielded a logD of 3.5. The EC50 in series [3] was found to be 5.2 nM; in series [6], 3.3 nM. Also, the Activity stood at 87% in [4] and 94% in series [7]. The solubility kinetic in [5] was 155 µM (≈ 71.9 µg/mL).

As for `COCc1cnc(N2CCC([C@H]3C[C@H]3COCc3ccc(-n4cnnn4)c(F)c3)CC2)nc1`, in [1], the half-life was 3 h. The compound further returned a pH-dependent lipophilicity (logD) in [2] of 3.7. For the same compound, the EC50 in series [3] is 3.8 nM; in series [6], 1.1 nM. Besides, the Activity in series [4] is 75%; in [7], 84%. For the same compound, the solubility kinetic in series [5] stood at 133 µM (≈ 60.3 µg/mL).

Take `O=S(=O)(CCO)c1ccc(COC[C@@H]2C[C@@H]2C2CCN(c3ncc(Cl)cn3)CC2)c(F)c1`: the half-life in series [1] is 0.9 h. In [2], this compound came in with a logD of 4.8. The concentration for a half-maximal effect (EC50) in [3] stood at 1.7 nM; in series [6] it was 2.3 nM. Also, the Activity is 121% in series [4] and 68% in [7]. In series [5], the solubility kinetic came to 83 µM (≈ 40.2 µg/mL).

Consider `CCS(=O)(=O)c1ccc(COC[C@@H]2C[C@@H]2C2CCN(c3nc(C(C)C)no3)CC2)c(F)c1`, for which the t1/2 with Rattus norvegicus [8] was 1.5 h. Moreover, the Vdu in the series on Rattus norvegicus [9] came to 62 L/kg. Further, the CLint scaled in series [10] came out at 905 mL/min/kg. The compound further yielded a logD in [2] of 4. The fraction unbound in [11] was found to be 0.058. This compound also yielded a Vd in the series with Rattus norvegicus [12] of 4.8 L/kg. Besides, in series [5], the solubility kinetic stood at 127 µM (≈ 59.1 µg/mL). For the same compound, the EC50 in series [6] turned out to be 0.8 nM. The Activity in series [7] amounted to 71%.

`CC(C)c1noc(N2CCC([C@H]3C[C@H]3COCc3ccc(S(C)(=O)=O)cc3F)CC2)n1` had a half-life in [1] of 2.2 h. Further, the logD in series [2] is 3.8. In addition, the EC50 in [3] worked out at 9.9 nM; in series [6] it was 4.2 nM. Besides, the Activity in series [4] was determined as 76%; in series [7], 87%. Also, the solubility kinetic in [5] is 144 µM (≈ 65 µg/mL).

`COCc1cnc(N2CCC([C@H]3C[C@H]3COCc3cc(F)c(S(C)(=O)=O)c(F)c3)CC2)nc1`: the half-life in [1] was 0.5 h. Also, the pH-dependent lipophilicity (logD) in series [2] is 3.6. The results for the EC50 in series [3] and in [6] were 5.8 nM and 4.5 nM, respectively. Further, the Activity is 67% in series [4] and 80% in [7]. In series [5], the solubility kinetic is 115 µM (≈ 55.4 µg/mL).

Take `CCc1cnc(N2CCC([C@H]3C[C@H]3COCc3ccc(S(C)(=O)=O)cn3)CC2)nc1`: the half-life in series [1] was 1.3 h. The logD in series [2] amounted to 3.6. The values for the EC50 in series [3] and in series [6] were 2.5 nM and 1.5 nM, respectively. Moreover, the Activity in [4] was 153%; in series [7] it was 83%. For the same compound, the solubility kinetic in [5] amounted to 7 µM (≈ 3.01 µg/mL).

Take `COC(C)c1cnc(N2CCC([C@H]3C[C@H]3COCc3ccc(S(C)(=O)=O)cc3F)CC2)nc1` (stereo in doubt; 30) [listing 2 of 2 here]: the t1/2 in the series with Rattus norvegicus [8] came to 1 h. The same compound displayed a log distribution coefficient (logD) in series [2] of 3.9. In addition, the EC50 in series [3] amounted to 3.3 nM; in series [6], 4.6 nM. In [5], the solubility kinetic worked out at 137 µM (≈ 65.4 µg/mL).

`CC(C)c1noc(N2CCC([C@H]3C[C@H]3COCc3ccc(-n4cnnn4)cc3F)CC2)n1` had a half-life in series [1] of 1.4 h. The compound also yielded a logD in [2] of 3.9. In addition, the EC50 is 4.8 nM in series [3] and 1.7 nM in [6]. The Activity is 105% in [4] and 129% in series [7]. The solubility kinetic in series [5] was 103 µM (≈ 45.5 µg/mL).

Values taken from ChEMBL document CHEMBL3621146, “Design of Potent and Orally Active GPR119 Agonists for the Treatment of Type II Diabetes” (ACS Med Chem Lett, 2015).
